Data taken from patent US12649732B2, “Polymorphs of (R)-N-(5-(5-isopropyl-1,2,4-oxadiazol-3-yl)-2,3-dihydro-1H-inden-1-yl)-2-methyl-2H-tetrazole-5-carboxamide” (Cytokinetics, Inc., priority 2019, dated 2026).

Tests used:
[1] = biological target: T1, bovine cardiac myofibrils (Bos taurus, UniProt Q9BE39); experiment: Skinned bovine cardiac myofibril ATPase assay (PK/LDH-coupled); format: biochemical; details: steady-state ATPase, Ca2+ giving 75% activation of myofibril ATPase
T1 construct: full-length cardiac myosin in the context of the native sarcomere; from tissue; host or cells: bovine cardiac left ventricular tissue (Triton X-100 skinned myofibrils)
T1 sequence (Q9BE39 whole entry): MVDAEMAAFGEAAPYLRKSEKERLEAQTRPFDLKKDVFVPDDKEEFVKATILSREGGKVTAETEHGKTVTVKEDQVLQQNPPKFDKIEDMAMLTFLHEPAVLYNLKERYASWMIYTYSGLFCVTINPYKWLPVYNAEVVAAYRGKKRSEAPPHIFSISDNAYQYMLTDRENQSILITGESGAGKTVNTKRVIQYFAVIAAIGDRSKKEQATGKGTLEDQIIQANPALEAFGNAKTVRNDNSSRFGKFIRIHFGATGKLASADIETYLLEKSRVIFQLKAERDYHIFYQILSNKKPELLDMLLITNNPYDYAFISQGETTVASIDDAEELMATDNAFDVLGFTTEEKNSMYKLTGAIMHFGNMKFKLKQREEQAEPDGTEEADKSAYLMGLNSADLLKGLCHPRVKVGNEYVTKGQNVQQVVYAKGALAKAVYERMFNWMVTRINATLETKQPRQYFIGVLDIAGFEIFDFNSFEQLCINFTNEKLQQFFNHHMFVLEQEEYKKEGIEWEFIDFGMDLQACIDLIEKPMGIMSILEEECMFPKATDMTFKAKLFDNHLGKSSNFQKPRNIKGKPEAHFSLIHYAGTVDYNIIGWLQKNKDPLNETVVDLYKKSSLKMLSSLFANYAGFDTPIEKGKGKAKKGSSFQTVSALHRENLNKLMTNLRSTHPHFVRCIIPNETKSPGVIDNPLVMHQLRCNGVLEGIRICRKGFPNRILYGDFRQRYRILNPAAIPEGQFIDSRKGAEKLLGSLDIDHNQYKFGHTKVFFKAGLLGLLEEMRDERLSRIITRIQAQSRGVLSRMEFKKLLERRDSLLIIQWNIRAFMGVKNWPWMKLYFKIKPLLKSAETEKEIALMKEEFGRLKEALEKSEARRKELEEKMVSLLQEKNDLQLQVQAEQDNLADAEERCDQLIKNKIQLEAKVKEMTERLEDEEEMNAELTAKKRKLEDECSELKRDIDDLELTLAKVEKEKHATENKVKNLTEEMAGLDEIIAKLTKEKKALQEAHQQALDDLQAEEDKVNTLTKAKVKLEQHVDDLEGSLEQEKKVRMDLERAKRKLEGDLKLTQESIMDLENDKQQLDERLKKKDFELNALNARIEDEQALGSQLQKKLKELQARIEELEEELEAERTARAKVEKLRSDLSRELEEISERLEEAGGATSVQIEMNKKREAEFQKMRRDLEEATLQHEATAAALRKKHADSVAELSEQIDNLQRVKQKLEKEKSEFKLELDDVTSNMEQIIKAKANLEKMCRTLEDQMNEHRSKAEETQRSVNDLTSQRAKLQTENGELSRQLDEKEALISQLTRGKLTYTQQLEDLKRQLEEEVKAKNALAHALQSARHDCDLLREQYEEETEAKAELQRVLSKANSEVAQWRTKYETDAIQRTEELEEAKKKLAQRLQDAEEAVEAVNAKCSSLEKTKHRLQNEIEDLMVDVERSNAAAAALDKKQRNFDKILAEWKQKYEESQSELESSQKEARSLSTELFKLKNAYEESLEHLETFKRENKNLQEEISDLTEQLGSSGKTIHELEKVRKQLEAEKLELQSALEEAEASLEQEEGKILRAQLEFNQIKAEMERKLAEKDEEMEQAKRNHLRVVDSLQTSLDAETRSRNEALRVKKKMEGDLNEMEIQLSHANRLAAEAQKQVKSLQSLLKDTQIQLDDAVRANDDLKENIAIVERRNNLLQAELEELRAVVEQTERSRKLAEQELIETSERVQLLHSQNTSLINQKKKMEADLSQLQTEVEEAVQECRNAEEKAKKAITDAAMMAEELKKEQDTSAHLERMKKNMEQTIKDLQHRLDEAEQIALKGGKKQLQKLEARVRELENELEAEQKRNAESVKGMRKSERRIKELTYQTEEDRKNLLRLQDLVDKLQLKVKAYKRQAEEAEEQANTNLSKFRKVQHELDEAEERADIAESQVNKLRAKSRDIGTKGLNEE
T1 sequence (P85100 whole entry partner): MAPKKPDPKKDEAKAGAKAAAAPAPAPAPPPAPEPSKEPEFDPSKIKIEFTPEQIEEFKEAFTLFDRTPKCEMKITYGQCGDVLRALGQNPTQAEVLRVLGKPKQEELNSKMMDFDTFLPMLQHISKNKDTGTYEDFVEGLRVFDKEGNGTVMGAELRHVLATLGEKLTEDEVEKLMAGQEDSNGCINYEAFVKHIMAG
T1 sequence (Q3SZE5 whole entry partner): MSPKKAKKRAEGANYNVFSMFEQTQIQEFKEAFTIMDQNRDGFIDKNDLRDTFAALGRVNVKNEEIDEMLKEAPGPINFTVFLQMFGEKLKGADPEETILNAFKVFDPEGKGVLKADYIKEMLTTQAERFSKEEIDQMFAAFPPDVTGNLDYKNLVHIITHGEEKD
Description: To evaluate the effect of (R)—N-(5-(5-isopropyl-1,2,4-oxadiazol-3-yl)-2,3-dihydro-1H-inden-1-yl)-2-methyl-2H-tetrazole-5-carboxamide on the ATPase activity of full-length cardiac myosin in the context of the native sarcomere, skinned myofibril assays were performed. Bovine cardiac myofibrils were obtained by homogenizing bovine cardiac left ventricular tissue in the presence of a detergent such as triton X-100. Such treatment removes membranes and a majority of the soluble cytoplasmic proteins but leaves intact the cardiac sarcomeric acto-myosin apparatus. Myofibril preparations retain the ability to hydrolyze ATP in a Ca^2+ regulated manner. […] Small molecule agents were assessed for their ability to inhibit the steady-state ATPase activity of bovine cardiac myofibrils using pyruvate kinase and lactate dehydrogenase (PK/LDH)-coupled enzyme system. This assay regenerates myosin-produced ADP into ATP by oxidizing NADH, producing an absorbance change at 340 nm. Prior to testing small molecule agents, the bovine cardiac myofibrils were assessed for their calcium responsiveness and the calcium concentration that achieves either a 50% (pCa50) or 75% (pCa75) activation of the myofibril system was chosen as the final condition for assessing the inhibitory activity of the small molecule agents.

[2] = test system: cardiac fractional shortening; experiment: Echocardiography of rat cardiac contractility, oral dosing; format: in vivo, Sprague Dawley rats
Description: Assessment of in vivo cardiac function by echocardiography was performed in male Sprague Dawley rats under isoflurane (1-3%) anesthesia. 2-D M-mode images of the left ventricle were acquired in the parasternal long-axis view before, during, and after administration of compounds by continuous IV infusion or oral gavage. In vivo fractional shortening was determined by M-mode image analysis with the following calculation: ((End diastolic diameter−end systolic diameter)/end diastolic diameter×100). For continuous IV infusion experiments, three pre-dose baseline M-mode images were taken at 1 minute intervals prior to infusion of compound. Compounds were formulated in 50% Propylene Glycol (PG): 16% Captisol: 10% dimethylacetamide (DMA) and delivered via a jugular vein catheter at the rate of 1 mL/kg/h. During infusion, M-mode images were taken at 5 minute intervals. The infusion stopped when fractional shortening reached up to a 60% reduction from baseline. Blood samples were taken to determine the plasma concentration of the compounds. Data was reported as an estimated IC50 value, which is the concentration at which fractional shortening is 50% of the pre-dose baseline contractility. […] For oral dosing studies, three pre-dose baseline M-Mode images were taken at 1 minute intervals prior to compound administration. (R)—N-(5-(5-isopropyl-1,2,4-oxadiazol-3-yl)-2,3-dihydro-1H-inden-1-yl)-2-methyl-2H-tetrazole-5-carboxamide was formulated in a 0.5% hydroxypropyl methylcellulose 2910 (HPMC 2910): 0.1% Tween 80 suspension and delivered as a single dose (5 mL/kg) by oral gavage. Rats were lightly anesthetized for M-Mode echocardiography measurements at select time points over a 24 hour period. Different dose levels were evaluated. The compound effect on cardiac fractional shortening at the highest dose evaluated is presented below as a percent reduction of baseline fractional shortening (=100%). Concurrent with echocardiography measurements, blood samples were taken to determine the corresponding compound plasma concentration.

[3] = test system: cardiac fractional shortening; experiment: Echocardiography of rat cardiac contractility, continuous IV infusion; format: in vivo, Sprague Dawley rats; details: Mean±S.D., read-out: estimated IC50 (plasma concentration at which fractional shortening is 50% of pre-dose baseline)
Description: Assessment of in vivo cardiac function by echocardiography was performed in male Sprague Dawley rats under isoflurane (1-3%) anesthesia. 2-D M-mode images of the left ventricle were acquired in the parasternal long-axis view before, during, and after administration of compounds by continuous IV infusion or oral gavage. In vivo fractional shortening was determined by M-mode image analysis with the following calculation: ((End diastolic diameter−end systolic diameter)/end diastolic diameter×100). For continuous IV infusion experiments, three pre-dose baseline M-mode images were taken at 1 minute intervals prior to infusion of compound. Compounds were formulated in 50% Propylene Glycol (PG): 16% Captisol: 10% dimethylacetamide (DMA) and delivered via a jugular vein catheter at the rate of 1 mL/kg/h. During infusion, M-mode images were taken at 5 minute intervals. The infusion stopped when fractional shortening reached up to a 60% reduction from baseline. Blood samples were taken to determine the plasma concentration of the compounds. Data was reported as an estimated IC50 value, which is the concentration at which fractional shortening is 50% of the pre-dose baseline contractility.

[4] = test system: adult rat ventricular myocytes; experiment: Myocyte contractility assay (fractional shortening, edge detection); format: cell-based, Sprague-Dawley rats; details: 5 μM, 5 min perfusion, 5 cells tested
Description: Adult male Sprague-Dawley rats were anesthetized and the hearts were quickly excised, rinsed and the ascending aorta was cannulated. Continuous retrograde perfusion was initiated on the hearts at a perfusion pressure of 60 cm H2O. Hearts were first perfused with a nominally Ca^2+-free modified Krebs solution of the following composition: 113 mM NaCl, 4.7 mM KCl, 0.6 mM KH2PO4, 0.6 mM Na2HPO4, 1.2 mM MgSO4, 12 mM NaHCO3, 10 mM KHCO3, 30 mM taurine, 5.5 mM glucose and 10 mM Hepes (all Sigma). This medium is not recirculated and is continually aerated with a 95% O2/5% CO2 mixture. […]
Aliquots of myocytes in Tyrode's buffer were placed in perfusion chambers (series 20 RC-27NE; Warner Instruments) complete with heating platforms. […] Contractility of the myocytes and contraction and relaxation velocities were then recorded using edge detection.
Five or more individual myocytes were tested per compound from two or more different myocyte preparations. […] These average transients were analyzed using the IonWizard software (IonOptix) to determine changes in diastolic length and fractional shortening. Fractional shortening was calculated as: ((resting length−length at peak contraction) divided by the resting length). The percent change in fractional shortening from baseline was calculated as: ((post-dose fractional shortening/basal fractional shortening)*100). […]

- IC15 (CDMF75) [1]: 0.5 µM
- IC50 ([2]; Rattus norvegicus, oral dosing, read-out: estimated IC50 (plasma concentration, fractional shortening)): 2900 nM
- IC50 [3]: 2700 ± 120 nM
Structure (SMILES): CC(C)c1nc(-c2ccc3c(c2)CC[C@H]3NC(=O)c2nnn(C)n2)no1 [(R)—N-(5-(5-isopropyl-1,2,4-oxadiazol-3-yl)-2,3-dihydro-1H-inden-1-yl)-2-methyl-2H-tetrazole-5-carboxamide]
- FS (% reduction from baseline) at 1-2 h post dose (Mean ± S.D.) ([2]; 6 mg/kg single oral gavage, 1-2 h post dose): 40 ± 9%
- FS (% reduction from baseline) at 4 h post dose (Mean ± S.D.) ([2]; 6 mg/kg single oral gavage, 4 h post dose): 18 ± 11%
- estimated IC10 (plasma concentration, fractional shortening) ([2]; oral dosing): 0.7 µM
- % FS (% reduction from baseline) ± SEM [4]: 67.8 ± −5.4%
